Literature values, collected in US20190321395A1, “TREATMENT OF PSORIASIS, SEBORRHEIC DERMATITIS, AND ECZEMA OF THE HEAD AND NECK” (Oread Therapeutics, priority 2018, published 2019).

Structure (SMILES) | Water Solubility
[O-][n+]1ccccc1[S-].[O-][n+]1ccccc1[S-].[Zn+2] [Pyrithione Zinc] | 86.00 µg/mL
CC(=O)N1CCN(c2ccc(OCC3COC(Cn4ccnc4)(c4ccc(Cl)cc4Cl)O3)cc2)CC1 (centres unmarked) [Ketoconazole] | 0.9 µg/mL
